The nature of data set [1]: Comparison of clearance rates with an iothalamate reference standard (FIG. 3). In kind it is in vivo, Spraque-Dawley rats. As to conditions: Sprague-Dawley rats; iothalamate five rats, compound 18 six rats; FIG. 3 in milliliters per minute. On the procedure:
FIG. 3 provides a bar graph comparison of the clearance rates of an iothalamate reference standard and compound 18. Spraque-Dawley rats were again used as animal models for studying the clearance rates. Iothalamate clearance rates were measured in five rats, whereas clearance rates for compound 18 were measured in six rats. The clearance rates are expressed in FIG. 3 in terms of milliliters per minute.

The nature of data set [2]: Excitation and emission wavelengths. The format is physicochemical. The source says:
Compound 18, above, is a longer wavelength compound (excitation ˜500 nm, emission 600 nm orange). To achieve the red shift in both excitation and emission wavelengths, electron donation into the ring was increased by alkyl substitution on the pyrazine ring nitrogens. The synthetic strategy for these longer wavelength analogues involves functionalizing the carboxyls first through amide chemistry described above followed by reductive amination of the pyrazine amino groups. Thus the synthesis of compound 18, above, is presented below. MP-3064 was coupled with Boc-ethylenediamine using the EDC method to afford MP-3183. This material was then converted to MP-3216 by reductive amination using Boc-2-aminoacetaldehyde and sodium triacetoxyborohydride. MP-3216 was purified by flash chromatography and deprotected with TFA to afford the corresponding tetramine salt. This material was then acylated with NHS-m-dPEG12 and purified by HPLC to afford compound 18: […]

The nature of data set [3]: Clearance curve of compound 18 in rats, monitored by fluorescence (RFUs) over time (FIG. 2). As to conditions: Sprague-Dawley rats, i.v. 1 ml of 2 mmol solution in PBS, approx. 6 μmol/kg, four rats, fluorescence (RFU). The format is in vivo. The protocol: Four Sprague-Dawley rats were used to obtain the experimental results depicted in FIG. 2, with each of the four lines of the graph representing data obtained from an individual rat. The rats were injected intravenously with 1 ml of a 2 mmol solution of compound 18 in phosphate-buffered saline CBS), giving a final concentration of compound 18 in each animal of approximately 6 μmol/kg. The presence of compound 18 in each of the animals was monitored over time and measured in Relative Fluorescence Units (RFUs). The clearance curve in FIG. 2 provides RFUs over time for each of the four rats. […] The clearance rate then began to level, with complete clearance of compound 18 occurring at approximately 6000 minutes.

The structures appear in SMILES notation.

In the case of `COCCOCCOCCOCCOCCOCCOCCOCCOCCOCCOCCOCCC(=O)NCCNC(=O)c1nc(NCCNC(=O)CCOCCOCCOCCOCCOCCOCCOCCOCCOCCOCCOCCOC)c(C(=O)NCCNC(=O)CCOCCOCCOCCOCCOCCOCCOCCOCCOCCOCCOCCOC)nc1NCCNC(=O)CCOCCOCCOCCOCCOCCOCCOCCOCCOCCOCCOCCOC` [compound 18, 3,6-Bis(38-oxo-2,5,8,11,14,17,20,23,26,29,32,35-dodecaoxa-39-azahentetracontan-41-ylamino)-N^2,N^5-bis(38-oxo-2,5,8,11,14,17,20,23,26,29,32,35-dodecaoxa-39-azahentetracontan-41-yl)pyrazine-2,5-dicarboxamide], in data set [1], the “clearance rate, compound 18 compared with iothalamate” value was “virtually the same”. Moreover, the excitation wavelength in data set [2] is recorded as ~500 nm. In data set [2] (orange), the emission wavelength was found to be 600 nm. Besides, the “time of complete clearance” value in data set [3] is “approximately 6000 minutes”.

As to `CNC(=O)c1c(I)c(NC(C)=O)c(I)c(C(=O)O)c1I` [iothalamate, reference compound], in data set [1], the “clearance rate, compound 18 compared with iothalamate” value was “virtually the same”.

The values above are taken from patent US8481734B2, “Pyrazine derivatives and uses thereof, including in medical imaging and visualization applications” (Medibeacon Development LLC, priority 2008, dated 2013).
